Data reported in the supplement of paper PMC10307832.

Assays:
Assay in all cases: relative viability (nuclei count vs DMSO), 5 days (fraction); higher = more cells survive
[1] = compound: Nc1ncn([C@H]2C[C@H](O)[C@@H](CO)O2)c(=O)n1 [Decitabine] + Cc1nc(NC(=O)N2CCC[C@H]2C(N)=O)sc1-c1ccnc(C(C)(C)C(F)(F)F)c1 [Alpelisib] (partner 2 µM)
Procedure, shortened: (§1)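 Each reported value is a median over duplicate plates. It expresses relative viability: treated-well nuclei count divided by vehicle-well nuclei count. Lung cancer cell lines in 1536-well plates were dosed by pin tool a day after seeding, alone with one drug or with a fixed anchor-drug dose plus five library-drug doses (not always all listed) in √10 steps, and nuclei were counted after 5 days.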

[2] = compound: COc1cc2c(Oc3ccc4[nH]c(C)cc4c3F)ncnc2cc1OCCCN1CCCC1 [Cediranib] + CS(=O)(=O)CCNCc1ccc(-c2ccc3ncnc(Nc4ccc(OCc5cccc(F)c5)c(Cl)c4)c3c2)o1 [Lapatinib] (partner 2 µM)
Procedure, shortened: as §1

[3] = compound: O=C(C[C@H]1NCCC[C@@H]1O)Cn1cnc2cc(Br)c(Cl)cc2c1=O (racemic) [Halofuginone] + C[C@@H](Oc1cc(-c2cnn(C3CCNCC3)c2)cnc1N)c1c(Cl)ccc(F)c1Cl [Crizotinib] (partner 1 µM)
Procedure, shortened: as §1

[4] = compound: O=C(C[C@H]1NCCC[C@@H]1O)Cn1cnc2cc(Br)c(Cl)cc2c1=O (racemic) [Halofuginone] + Cc1cc(Nc2cc(N3CCN(C)CC3)nc(Sc3ccc(NC(=O)C4CC4)cc3)n2)n[nH]1 [Tozasertib] (partner 0.1 µM)
Procedure, shortened: as §1

Cell Line | relative viability ([1]; first compound 0.04 µM) | relative viability ([1]; first compound 0.1265 µM) | relative viability ([1]; first compound 0.4 µM) | relative viability ([1]; first compound 1.265 µM) | relative viability ([1]; first compound 4 µM) | relative viability ([2]; first compound 0.04 µM) | relative viability ([2]; first compound 0.4 µM) | relative viability ([2]; first compound 1.265 µM) | relative viability ([2]; first compound 4 µM) | relative viability ([3]; first compound 0.001 µM) | relative viability ([3]; first compound 0.003162 µM) | relative viability ([3]; first compound 0.01 µM) | relative viability ([3]; first compound 0.03162 µM) | relative viability ([3]; first compound 0.1 µM) | relative viability ([4]; first compound 0.001 µM) | relative viability ([4]; first compound 0.003162 µM) | relative viability ([4]; first compound 0.01 µM) | relative viability ([4]; first compound 0.03162 µM) | relative viability ([4]; first compound 0.1 µM) | relative viability ([2]; first compound 0.1265 µM)
HCC-44 | 0.66 | 0.779 | 0.253 | 0.462 | 0.336 | 0.982 | 0.951 | 0.995 | 0.949 | 0.89 | 0.833 | 0.72 | 0.745 | 0.516 | 1.16 | 0.994 | 1 | 0.824 | 0.17 | 
HCC-78 | 0.324 | 0.293 | 0.285 | 0.204 | 0.247 | 1 | 0.634 | 0.662 | 0.695 | 0.396 | 0.356 | 0.314 | 0.341 | 0.237 | 0.491 | 0.422 | 0.503 | 0.347 | 0.427 | 0.703
HCC-366 | 0.455 | 0.597 | 0.31 | 0.133 | 0.0897 | 1.08 | 0.983 | 0.957 | 1.23 | 0.759 | 0.515 | 0.607 | 0.544 | 0.0412 | 0.142 | 0.115 | 0.0951 | 0.104 | 0.0283 | 0.479
HCC-827 |  | 0.426 | 0.356 | 0.279 | 0.311 | 0.203 | 0.178 | 0.194 | 0.208 | 0.913 | 0.893 | 0.895 | 0.973 | 0.798 | 0.419 | 0.39 | 0.427 | 0.398 | 0.456 | 
HOP-62 | 0.652 | 0.323 | 0.152 | 0.124 | 0.125 | 1.15 | 0.879 | 1.01 | 1.35 | 0.905 | 0.958 | 0.971 | 0.972 | 0.676 | 0.445 | 0.406 | 0.386 | 0.32 | 0.231 | 
IA-LM | 0.464 | 0.406 | 0.297 | 0.207 | 0.152 | 0.933 | 0.673 | 0.732 | 0.794 | 0.845 | 0.899 | 0.768 | 0.384 | 0.0479 |  |  |  |  |  | 0.938
LC-2-ad | 0.726 | 0.742 | 0.681 | 0.378 | 0.304 | 1.07 | 0.94 | 1.02 | 0.731 | 0.555 | 0.472 | 0.431 | 0.516 | 0.439 | 0.476 | 0.508 | 0.422 | 0.351 | 0.225 | 0.656
LCLC-97TM1 | 0.172 | 0.151 | 0.14 | 0.129 | 0.112 | 1.03 | 0.976 | 1.15 | 1.01 | 0.394 | 0.297 | 0.31 | 0.266 | 0.237 | 0.265 | 0.247 | 0.203 | 0.243 | 0.208 | 
LCLC-103H | 0.888 | 0.958 | 0.487 | 0.858 | 0.64 |  |  |  |  | 1.09 | 1 | 0.972 | 0.948 | 0.85 | 0.503 | 0.59 | 0.446 | 0.443 | 0.425 | 
